Assays:
nuclear BCRP = target: T1, nuclear BCRP (Homo sapiens, UniProt Q9UNQ0); assay: Screening of BCRP ligands, single frontal displacement of etoposide on NMAC; conditions: NMAC(LN229) column, verapamil in mobile phase, etoposide as marker ligand
T1 sequence (Q9UNQ0 1-655): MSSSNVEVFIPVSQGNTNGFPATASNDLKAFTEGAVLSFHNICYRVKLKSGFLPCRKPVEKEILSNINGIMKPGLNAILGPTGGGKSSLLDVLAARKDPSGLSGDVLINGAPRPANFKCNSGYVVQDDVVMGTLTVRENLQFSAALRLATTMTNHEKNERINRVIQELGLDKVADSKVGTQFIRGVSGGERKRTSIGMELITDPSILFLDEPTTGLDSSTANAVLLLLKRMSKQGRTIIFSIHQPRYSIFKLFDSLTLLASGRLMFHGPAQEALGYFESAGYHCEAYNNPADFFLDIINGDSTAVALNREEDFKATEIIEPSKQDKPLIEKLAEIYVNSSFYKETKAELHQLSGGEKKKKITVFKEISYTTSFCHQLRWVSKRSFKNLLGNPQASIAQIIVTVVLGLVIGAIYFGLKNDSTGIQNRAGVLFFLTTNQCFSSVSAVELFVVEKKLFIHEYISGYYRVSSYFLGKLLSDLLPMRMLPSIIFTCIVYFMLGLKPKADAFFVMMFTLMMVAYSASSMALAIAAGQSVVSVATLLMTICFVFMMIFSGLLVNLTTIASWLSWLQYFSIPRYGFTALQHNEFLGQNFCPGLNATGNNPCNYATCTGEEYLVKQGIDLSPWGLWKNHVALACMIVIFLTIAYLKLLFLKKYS

Pgp, MRP1 and BCRP [1] = assay: Frontal affinity chromatography on NMAC; assay type: binding, human; conditions: human, pH 7.4
Pgp, MRP1 and BCRP [2] = assay: Frontal affinity chromatography on CMAC; assay type: binding, human; conditions: human, pH 7.4
[3] = system: Pgp, MRP1 and BCRP co-immobilized; assay: in vitro; conditions: human, pH 7.4, Binding affinity (Kd), NMAC(LN-229)-IAM column, all transporters, ammonium acetate 10 mM pH 7.4, 0.4 mL/min
MRP1 = MRP1 (Homo sapiens, UniProt P33527); assay: Selective Kd determination on NMAC; assay type: binding
MRP1, sequence (P33527 whole entry): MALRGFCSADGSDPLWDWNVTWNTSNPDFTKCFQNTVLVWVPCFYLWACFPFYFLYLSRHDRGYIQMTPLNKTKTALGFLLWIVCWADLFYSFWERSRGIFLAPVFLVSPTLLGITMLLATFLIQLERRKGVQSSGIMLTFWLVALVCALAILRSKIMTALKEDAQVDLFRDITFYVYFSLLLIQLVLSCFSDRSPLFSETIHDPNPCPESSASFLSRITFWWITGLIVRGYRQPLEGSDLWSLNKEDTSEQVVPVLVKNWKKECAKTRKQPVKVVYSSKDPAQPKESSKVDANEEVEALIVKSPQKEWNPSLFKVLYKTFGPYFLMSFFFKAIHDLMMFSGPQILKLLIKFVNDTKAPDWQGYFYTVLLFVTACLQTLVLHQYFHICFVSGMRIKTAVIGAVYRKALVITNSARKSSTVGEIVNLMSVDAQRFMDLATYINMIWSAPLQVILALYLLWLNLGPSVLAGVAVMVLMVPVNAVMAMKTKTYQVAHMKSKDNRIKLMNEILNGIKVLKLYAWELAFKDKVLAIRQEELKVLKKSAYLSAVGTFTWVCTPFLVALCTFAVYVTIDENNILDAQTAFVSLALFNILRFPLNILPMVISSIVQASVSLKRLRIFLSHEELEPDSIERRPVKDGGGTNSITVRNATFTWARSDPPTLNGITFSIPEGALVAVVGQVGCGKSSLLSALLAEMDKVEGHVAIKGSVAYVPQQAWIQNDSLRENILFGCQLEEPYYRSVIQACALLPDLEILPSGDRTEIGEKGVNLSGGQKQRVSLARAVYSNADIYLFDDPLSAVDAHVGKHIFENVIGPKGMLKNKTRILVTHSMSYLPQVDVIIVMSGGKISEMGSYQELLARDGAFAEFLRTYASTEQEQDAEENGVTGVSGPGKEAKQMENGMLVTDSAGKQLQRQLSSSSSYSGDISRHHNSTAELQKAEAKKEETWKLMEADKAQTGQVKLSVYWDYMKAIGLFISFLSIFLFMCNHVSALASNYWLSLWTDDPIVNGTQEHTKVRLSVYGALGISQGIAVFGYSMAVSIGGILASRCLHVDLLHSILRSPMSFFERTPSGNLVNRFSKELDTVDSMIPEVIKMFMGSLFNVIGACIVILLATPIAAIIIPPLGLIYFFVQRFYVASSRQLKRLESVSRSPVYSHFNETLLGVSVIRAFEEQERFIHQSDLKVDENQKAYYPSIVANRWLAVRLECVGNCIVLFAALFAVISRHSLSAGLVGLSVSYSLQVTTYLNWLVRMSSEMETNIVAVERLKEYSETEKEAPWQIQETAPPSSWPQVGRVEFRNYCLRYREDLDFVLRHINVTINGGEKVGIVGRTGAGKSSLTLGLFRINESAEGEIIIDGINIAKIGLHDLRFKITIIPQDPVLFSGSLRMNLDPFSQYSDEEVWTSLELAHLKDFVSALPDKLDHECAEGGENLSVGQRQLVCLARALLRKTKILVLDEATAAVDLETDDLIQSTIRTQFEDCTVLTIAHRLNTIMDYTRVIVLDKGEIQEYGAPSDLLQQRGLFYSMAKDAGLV

BCRP = target: T2, BCRP (Homo sapiens, UniProt Q9UNQ0); assay: Selective Kd determination on NMAC; assay type: binding
T2 sequence (Q9UNQ0 1-655): T1 sequence (Q9UNQ0 1-655)

[4] = system: Pgp, MRP1 and BCRP transporters (LN-229 nuclear membranes, open tubular); assay: Frontal affinity chromatography on NMAC; assay type: binding, human; conditions: read-out: Binding affinity (Kd); NMAC(LN-229)-OT column, ammonium acetate 10 mM pH 7.4, 0.05 mL/min
[5] = system: Pgp, MRP1 and BCRP transporters (LN-229 cellular membranes, open tubular); assay: Frontal affinity chromatography on CMAC; assay type: binding, human; conditions: read-out: Binding affinity (Kd); CMAC(LN-229)-OT column, ammonium acetate 10 mM pH 7.4, 0.05 mL/min

## Cc1cn([C@H]2C[C@H](N=[N+]=[N-])[C@@H](CO)O2)c(=O)[nH]c1=O [AZT, zidovudine]
Nuclear BCRP
  Change in retention of etoposide: −5%

## COc1cc([C@@H]2c3cc4c(cc3[C@@H](O[C@@H]3O[C@@H]5CO[C@@H](C)O[C@H]5[C@H](O)[C@H]3O)[C@H]3COC(=O)[C@H]23)OCO4)cc(OC)c1O [etoposide]
Pgp, MRP1 and BCRP [1]
  Kd: 1260 ± 360 nM
Pgp, MRP1 and BCRP [2]
  Kd: 2250 ± 490 nM
[3]
  Kd: 3750 ± 970 nM
MRP1
  Kd: 4390 ± 1930 nM
BCRP
  Kd: 1410 ± 540 nM
BCRP; 0.75 μM etoposide, NMAC(LN-229)-IAM
  Reduction of breakthrough volume on addition of 2 μM verapamil: ~ 10%
BCRP; 5 μM etoposide, NMAC(LN-229)-IAM
  Reduction of breakthrough volume on addition of 2 μM verapamil: ~ 15%
BCRP; 5 μM etoposide, NMAC(LN-229)-IAM, 2 μM verapamil
  Breakthrough volume with 2 μM verapamil in mobile phase: 21.01 min

## COc1ccc(-c2coc3cc(O)cc(O)c3c2=O)cc1 [biochanin A]
[4]
  Kd: 1750 ± 360 nM
[5]
  Kd: 690 ± 170 nM

Source: publication PMC3998376 (Journal of chromatography. A, 2014)
